Activity calls are given as the source filed them. No rule for the calls is given here.
What was measured:
Assay in all cases: cellular hydrolase off-targets, SILAC, ABHD6 analysis – ABPP-SILAC, LC-MS, mouse cells, selectivity assay for DAGLb inhibitor project, late-stage follow-up (AID 602341)
Abhd11 = details: serine hydrolases, stronger effect = lower value
Abhd12 = details: serine hydrolases, stronger effect = lower value
Ache = details: serine hydrolases, stronger effect = lower value
Acot2 = details: serine hydrolases, stronger effect = lower value
[1] = target: Acyl-protein thioesterase 1 (Mus musculus) (UniProt P97823); details: serine hydrolases, Lypla1, stronger effect = lower value
Apeh = details: serine hydrolases, stronger effect = lower value
Bat5 = details: serine hydrolases, stronger effect = lower value
Ctsa = details: serine hydrolases, stronger effect = lower value
D230012E17Rik = details: serine hydrolases, stronger effect = lower value
[2] = target: Diacylglycerol lipase-beta (Mus musculus) (UniProt Q91WC9); details: serine hydrolases, Daglb, stronger effect = lower value
Dpp7 = details: serine hydrolases, stronger effect = lower value
Dpp8 = details: serine hydrolases, stronger effect = lower value
Dpp9 = details: serine hydrolases, stronger effect = lower value
Esd = details: serine hydrolases, stronger effect = lower value
Faah = details: serine hydrolases, stronger effect = lower value
Fam108a = details: serine hydrolases, stronger effect = lower value
Fam108b = details: serine hydrolases, stronger effect = lower value
Fam108c = details: serine hydrolases, stronger effect = lower value
Fasn = details: serine hydrolases, stronger effect = lower value
Htra2 = details: serine hydrolases, stronger effect = lower value
Iah1 = details: serine hydrolases, stronger effect = lower value
Kiaa1363 = details: serine hydrolases, stronger effect = lower value
Lactb = details: serine hydrolases, stronger effect = lower value
Lipe = details: serine hydrolases, stronger effect = lower value
Lonp1 = details: serine hydrolases, stronger effect = lower value
Lypla2 = details: serine hydrolases, stronger effect = lower value
Lypla3 = details: serine hydrolases, stronger effect = lower value
Lyplal1 = details: serine hydrolases, stronger effect = lower value
[3] = target: Monoacylglycerol lipase ABHD6 (Mus musculus) (UniProt Q8R2Y0); details: serine hydrolases, stronger effect = lower value
Pafah1b2 = details: serine hydrolases, stronger effect = lower value
Pafah1b3 = details: serine hydrolases, stronger effect = lower value
[4] = target: Palmitoyl-protein thioesterase ABHD10, mitochondrial (Mus musculus) (UniProt Q6PE15); details: serine hydrolases, stronger effect = lower value
Parl = details: serine hydrolases, stronger effect = lower value
Pla2g6 = details: serine hydrolases, stronger effect = lower value
[5] = target: Platelet-activating factor acetylhydrolase 2, cytoplasmic (Mus musculus) (UniProt Q8VDG7); details: serine hydrolases, Pafah2, stronger effect = lower value
Pme1 = details: serine hydrolases, stronger effect = lower value
Pnpla6 = details: serine hydrolases, stronger effect = lower value
Pnpla7 = details: serine hydrolases, stronger effect = lower value
Pnpla8 = details: serine hydrolases, stronger effect = lower value
Ppt2 = details: serine hydrolases, stronger effect = lower value
Prcp = details: serine hydrolases, stronger effect = lower value
Prepl = details: serine hydrolases, stronger effect = lower value
[6] = target: Prolyl endopeptidase (Mus musculus) (UniProt Q9QUR6); details: serine hydrolases, Prep, stronger effect = lower value
Qrsl1 = details: serine hydrolases, stronger effect = lower value
Rbbp9 = details: serine hydrolases, stronger effect = lower value
Serhl = details: serine hydrolases, stronger effect = lower value
Tpp2 = details: serine hydrolases, stronger effect = lower value

Chain of Diacylglycerol lipase-beta (Mus musculus) (Q91WC9 whole entry, looked up): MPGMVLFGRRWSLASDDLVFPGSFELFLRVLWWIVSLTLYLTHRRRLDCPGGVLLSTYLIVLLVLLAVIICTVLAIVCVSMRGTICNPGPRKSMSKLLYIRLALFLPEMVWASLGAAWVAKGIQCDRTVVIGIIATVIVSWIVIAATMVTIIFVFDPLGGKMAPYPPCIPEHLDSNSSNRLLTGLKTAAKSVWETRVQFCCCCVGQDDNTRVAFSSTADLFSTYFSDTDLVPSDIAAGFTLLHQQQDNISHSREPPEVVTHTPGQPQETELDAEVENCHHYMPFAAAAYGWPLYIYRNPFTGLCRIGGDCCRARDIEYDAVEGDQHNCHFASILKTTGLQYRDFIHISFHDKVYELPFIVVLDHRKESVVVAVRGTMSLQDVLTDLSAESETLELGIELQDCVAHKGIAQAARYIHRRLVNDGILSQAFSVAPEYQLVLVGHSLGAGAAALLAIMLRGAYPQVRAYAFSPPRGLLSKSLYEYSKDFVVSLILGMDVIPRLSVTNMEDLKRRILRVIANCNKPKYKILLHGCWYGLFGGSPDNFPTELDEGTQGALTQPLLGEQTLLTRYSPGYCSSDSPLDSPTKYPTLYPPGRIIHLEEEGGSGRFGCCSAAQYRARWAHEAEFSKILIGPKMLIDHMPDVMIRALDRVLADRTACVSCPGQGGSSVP
Chain of Acyl-protein thioesterase 1 (Mus musculus) (P97823 whole entry, looked up): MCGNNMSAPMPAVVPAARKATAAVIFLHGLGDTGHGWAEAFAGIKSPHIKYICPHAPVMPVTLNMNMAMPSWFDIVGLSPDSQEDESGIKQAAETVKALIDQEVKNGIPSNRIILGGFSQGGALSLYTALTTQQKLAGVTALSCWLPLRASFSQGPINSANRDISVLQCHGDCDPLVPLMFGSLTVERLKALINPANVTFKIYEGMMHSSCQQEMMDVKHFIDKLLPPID
Chain of Palmitoyl-protein thioesterase ABHD10, mitochondrial (Mus musculus) (Q6PE15 whole entry, looked up): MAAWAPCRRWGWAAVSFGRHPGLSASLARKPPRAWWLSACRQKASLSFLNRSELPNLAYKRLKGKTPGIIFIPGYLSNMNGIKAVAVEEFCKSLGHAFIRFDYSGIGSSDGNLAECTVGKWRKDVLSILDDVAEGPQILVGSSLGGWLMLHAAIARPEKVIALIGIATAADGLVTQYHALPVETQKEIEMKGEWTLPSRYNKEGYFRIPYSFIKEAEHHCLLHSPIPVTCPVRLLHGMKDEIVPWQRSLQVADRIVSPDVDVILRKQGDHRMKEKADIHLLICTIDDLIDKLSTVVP
Chain of Monoacylglycerol lipase ABHD6 (Mus musculus) (Q8R2Y0 whole entry, looked up): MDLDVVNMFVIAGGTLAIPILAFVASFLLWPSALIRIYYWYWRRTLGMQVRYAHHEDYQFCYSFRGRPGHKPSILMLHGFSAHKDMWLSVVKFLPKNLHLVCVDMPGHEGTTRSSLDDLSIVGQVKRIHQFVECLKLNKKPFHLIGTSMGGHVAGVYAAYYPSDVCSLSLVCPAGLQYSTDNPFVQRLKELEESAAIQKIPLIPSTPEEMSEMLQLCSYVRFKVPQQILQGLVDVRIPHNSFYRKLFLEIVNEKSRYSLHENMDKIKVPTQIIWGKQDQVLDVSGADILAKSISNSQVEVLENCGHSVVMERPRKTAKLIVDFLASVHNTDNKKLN
Chain of Prolyl endopeptidase (Mus musculus) (Q9QUR6 whole entry, looked up): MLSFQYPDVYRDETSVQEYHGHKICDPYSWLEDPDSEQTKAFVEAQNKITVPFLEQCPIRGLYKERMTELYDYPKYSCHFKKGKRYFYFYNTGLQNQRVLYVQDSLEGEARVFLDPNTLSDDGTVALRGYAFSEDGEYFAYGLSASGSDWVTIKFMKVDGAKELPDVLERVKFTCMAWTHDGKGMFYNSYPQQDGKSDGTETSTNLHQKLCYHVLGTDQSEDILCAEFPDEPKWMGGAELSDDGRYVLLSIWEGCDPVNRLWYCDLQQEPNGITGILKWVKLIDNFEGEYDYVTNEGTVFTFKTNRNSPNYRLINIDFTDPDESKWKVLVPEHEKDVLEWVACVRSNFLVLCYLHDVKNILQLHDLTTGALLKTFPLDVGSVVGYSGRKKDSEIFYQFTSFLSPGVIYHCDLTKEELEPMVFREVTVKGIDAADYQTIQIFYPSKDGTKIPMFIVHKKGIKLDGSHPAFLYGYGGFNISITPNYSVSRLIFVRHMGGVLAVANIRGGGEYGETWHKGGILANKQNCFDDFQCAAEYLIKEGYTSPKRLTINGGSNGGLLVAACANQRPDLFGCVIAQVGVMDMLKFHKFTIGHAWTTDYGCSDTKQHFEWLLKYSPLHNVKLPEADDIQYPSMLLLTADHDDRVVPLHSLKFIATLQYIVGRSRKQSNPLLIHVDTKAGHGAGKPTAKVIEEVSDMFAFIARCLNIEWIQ
Chain of Platelet-activating factor acetylhydrolase 2, cytoplasmic (Mus musculus) (Q8VDG7 whole entry, looked up): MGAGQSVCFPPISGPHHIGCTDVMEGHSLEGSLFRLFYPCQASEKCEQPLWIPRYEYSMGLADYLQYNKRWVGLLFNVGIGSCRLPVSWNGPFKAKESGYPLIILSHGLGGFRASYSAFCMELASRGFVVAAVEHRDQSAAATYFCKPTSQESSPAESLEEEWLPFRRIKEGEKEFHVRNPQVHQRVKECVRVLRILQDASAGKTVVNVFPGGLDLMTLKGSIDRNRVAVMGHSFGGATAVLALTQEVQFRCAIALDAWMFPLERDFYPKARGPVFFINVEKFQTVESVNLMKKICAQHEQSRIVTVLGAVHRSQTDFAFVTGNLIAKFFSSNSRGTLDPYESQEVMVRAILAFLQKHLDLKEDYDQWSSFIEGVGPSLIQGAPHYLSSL

COc1ccc(-c2ccc(-c3cn(C(=O)N4CCCCC4c4ccccc4)nn3)cc2)cc1 (configuration not stated)
SILAC ratio (inhibitor/DMSO) (Abhd11): 1.5 (inactive) | SILAC ratio (inhibitor/DMSO) (Abhd12): 1.3 (inactive) | SILAC ratio (inhibitor/DMSO) (Ache): 1.23 (inactive) | SILAC ratio (inhibitor/DMSO) (Acot2): 1.47 (inactive) | SILAC ratio (inhibitor/DMSO) [1]: 1.05 (inactive) | SILAC ratio (inhibitor/DMSO) (Apeh): 1.13 (inactive) | SILAC ratio (inhibitor/DMSO) (Bat5): 1.27 (inactive) | SILAC ratio (inhibitor/DMSO) (Ctsa): 1.46 (inactive) | SILAC ratio (inhibitor/DMSO) (D230012E17Rik): 1.13 (inactive) | SILAC ratio (inhibitor/DMSO) [2]: 1.05 (inactive) | SILAC ratio (inhibitor/DMSO) (Dpp7): 1.29 (inactive) | SILAC ratio (inhibitor/DMSO) (Dpp8): 1.17 (inactive) | SILAC ratio (inhibitor/DMSO) (Dpp9): 1.06 (inactive) | SILAC ratio (inhibitor/DMSO) (Esd): 1.34 (inactive) | SILAC ratio (inhibitor/DMSO) (Faah): 0.95 (inactive) | SILAC ratio (inhibitor/DMSO) (Fam108a): 1.33 (inactive) | SILAC ratio (inhibitor/DMSO) (Fam108b): 1.15 (inactive) | SILAC ratio (inhibitor/DMSO) (Fam108c): 1.13 (inactive) | SILAC ratio (inhibitor/DMSO) (Fasn): 1.19 (inactive) | SILAC ratio (inhibitor/DMSO) (Htra2): 1.29 (inactive) | SILAC ratio (inhibitor/DMSO) (Iah1): 1.15 (inactive) | SILAC ratio (inhibitor/DMSO) (Kiaa1363): 1.39 (inactive) | SILAC ratio (inhibitor/DMSO) (Lactb): 1.05 (inactive) | SILAC ratio (inhibitor/DMSO) (Lipe): 1.21 (inactive) | SILAC ratio (inhibitor/DMSO) (Lonp1): 1.73 (inactive) | SILAC ratio (inhibitor/DMSO) (Lypla2): 1.13 (inactive) | SILAC ratio (inhibitor/DMSO) (Lypla3): 1.1 (inactive) | SILAC ratio (inhibitor/DMSO) (Lyplal1): 1.61 (inactive) | SILAC ratio (inhibitor/DMSO) [3]: 0.05 | SILAC ratio (inhibitor/DMSO) (Pafah1b2): 1.19 (inactive) | SILAC ratio (inhibitor/DMSO) (Pafah1b3): 1.15 (inactive) | SILAC ratio (inhibitor/DMSO) [4]: 1.17 (inactive) | SILAC ratio (inhibitor/DMSO) (Parl): 1.4 (inactive) | SILAC ratio (inhibitor/DMSO) (Pla2g6): 1.47 (inactive) | SILAC ratio (inhibitor/DMSO) [5]: 1.1 (inactive) | SILAC ratio (inhibitor/DMSO) (Pme1): 1.29 (inactive) | SILAC ratio (inhibitor/DMSO) (Pnpla6): 1.4 (inactive) | SILAC ratio (inhibitor/DMSO) (Pnpla7): 1.65 (inactive) | SILAC ratio (inhibitor/DMSO) (Pnpla8): 1.33 (inactive) | SILAC ratio (inhibitor/DMSO) (Ppt2): 1.17 (inactive) | SILAC ratio (inhibitor/DMSO) (Prcp): 0.86 (inactive) | SILAC ratio (inhibitor/DMSO) (Prepl): 1 (inactive) | SILAC ratio (inhibitor/DMSO) [6]: 1.07 (inactive) | SILAC ratio (inhibitor/DMSO) (Qrsl1): 1.47 (inactive) | SILAC ratio (inhibitor/DMSO) (Rbbp9): 1.4 (inactive) | SILAC ratio (inhibitor/DMSO) (Serhl): 1.2 (inactive) | SILAC ratio (inhibitor/DMSO) (Tpp2): 1.43 (inactive)

Source: PubChem BioAssay AID602341 (The Scripps Research Institute Molecular Screening Center, 2012)
